The record followed here is patent US20250171430A1, “PYRAZOLYL COMPOUNDS AS KV7 CHANNEL ACTIVATORS” (Biohaven Therapeutics Ltd., priority 2022, published 2025).

SMILES strings stand for the structures.

The test addresses T1, Kv7.2/7.3 (Homo sapiens, UniProt O43525+O43526).
T1 construct: Kv7.2 tetracycline-induced, Kv7.3 constitutive
Nature of the test: Kv7.2/7.3 Activation Assay (Thallium Flux Assay). The format is cell-based. Particulars: hKV7.2/7.3 cell line; test compound at single concentration of 10 μM; fluorescence at 90 sec normalized to positive control (retigabine, 30 μM). In short, it runs like this:
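Human Kv7.2/7.3 cells with Kv7.2 induced overnight by 10 ng/mL tetracycline were loaded with FluxOR II Green for 1 h at 37 °C. Compounds were tested at 10 μM in 0.1% DMSO/extracellular solution, pH 7.4. Thallium/potassium stimulus was added after a 15 s baseline, and 90 s fluorescence (ex 475/em 530 nm) was normalized to 30 μM retigabine.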
Take `Cn1nc(NC(=O)C[C@@H]2CC(F)(F)C2(F)F)c(C2(C)CCC2)c1-c1ccc(F)cc1` [Compound 284, (R)-N-(5-(4-fluorophenyl)-1-methyl-4-(1-methylcyclobutyl)-1H-pyrazol-3-yl)-2-(2,2,3,3-tetrafluorocyclobutyl)acetamide]: the “Kv7.2/7.3 Activity” value was “++ (“++” High Activity ≥ 0.7)”.

With `Cn1nc(NC(=O)NCC2CC(F)(F)C2)c(C2CCC2)c1C1CC(F)(F)C1` [Compound 297, 1-(4-cyclobutyl-5-(3,3-difluorocyclobutyl)-1-methyl-1H-pyrazol-3-yl)-3-((3,3-difluorocyclobutyl)methyl)urea], the “Kv7.2/7.3 Activity” value is given as “++ (“++” High Activity ≥ 0.7)”. Regarding `Cn1nc(NC(=O)C2CSC2)c(C2CCC2)c1-c1ccc(F)cc1` [Compound 205, N-(4-cyclobutyl-5-(4-fluorophenyl)-1-methyl-1H-pyrazol-3-yl)thietane-3-carboxamide], the “Kv7.2/7.3 Activity” value was “++ (“++” High Activity ≥ 0.7)”. The entry for `Cn1nc(NC(=O)C[C@H]2CC(F)(F)C2(F)F)c(C2CCC2)c1-c1ccc(C(F)(F)F)cn1` [Compound 35, (S)-N-(4-cyclobutyl-1-methyl-5-(5-(trifluoromethyl)pyridin-2-yl)-1H-pyrazol-3-yl)-2-(2,2,3,3-tetrafluorocyclobutyl)acetamide] is “+ (“+” Moderate Activity 0.15-0.7)”; for `Cn1nc(NC(=O)C[C@H]2CC2(C)C)c(C2CCC2)c1-c1ccc(F)cc1` [Compound 100, (R)-N-(4-cyclobutyl-5-(4-fluorophenyl)-1-methyl-1H-pyrazol-3-yl)-2-(2,2-dimethylcyclopropyl)acetamide] it is “++ (“++” High Activity ≥ 0.7)”; for `Cn1nc(NC(=O)NCC(F)(F)F)c(C2CCC2)c1C1CC(F)(F)C1` [Compound 293, 1-(4-cyclobutyl-5-(3,3-difluorocyclobutyl)-1-methyl-1H-pyrazol-3-yl)-3-(2,2,2-trifluoroethyl)urea] it is “++ (“++” High Activity ≥ 0.7)”.

Turning to `Cn1nc(NC(=O)CC(C)(O)c2ccc(F)cc2F)c(C2CCC2)c1-c1ccc(OC(F)(F)F)cc1` (stereo not drawn) [Compound 175, N-(4-cyclobutyl-1-methyl-5-(4-(trifluoromethoxy)phenyl)-1H-pyrazol-3-yl)-3-(2,4-difluorophenyl)-3-hydroxybutanamide], the “Kv7.2/7.3 Activity” value is listed as “++ (“++” High Activity ≥ 0.7)”. `Cn1nc(NC(=O)CC(C)(C)C(F)(F)F)c(C2CCC2)c1C1CCCCC1` [Compound 68, N-(4-cyclobutyl-5-cyclohexyl-1-methyl-1H-pyrazol-3-yl)-4,4,4-trifluoro-3,3-dimethylbutanamide]: the “Kv7.2/7.3 Activity” value is “++ (“++” High Activity ≥ 0.7)”.

`Cn1nc(NC(=O)C2CC3(CCC3)C2)c(C2CCC2)c1-c1ccc(F)cc1` [Compound 187, N-(4-cyclobutyl-5-(4-fluorophenyl)-1-methyl-1H-pyrazol-3-yl)spiro[3.3]heptane-2-carboxamide]: the “Kv7.2/7.3 Activity” value is “++ (“++” High Activity ≥ 0.7)”. The entry for `Cn1nc(NC(=O)C2(C(F)(F)F)CC2)c(C2CCC2)c1-c1ccc(OC(F)(F)F)cc1` [Compound 150, N-(4-cyclobutyl-1-methyl-5-(4-(trifluoromethoxy)phenyl)-1H-pyrazol-3-yl)-1-(trifluoromethyl)cyclopropane-1-carboxamide] is “+ (“+” Moderate Activity 0.15-0.7)”; for `Cn1nc(NC(=O)C2CCC2)c(C2CCC2)c1-c1ccc(OC(F)(F)F)cc1` [Compound 190, N-(4-cyclobutyl-1-methyl-5-(4-(trifluoromethoxy)phenyl)-1H-pyrazol-3-yl)cyclobutanecarboxamide] it is “++ (“++” High Activity ≥ 0.7)”.

With `CCn1nc(NC(=O)c2ccc(F)c(F)c2)c(C2CC2)c1C` [Compound 11, N-(4-cyclopropyl-1-ethyl-5-methyl-1H-pyrazol-3-yl)-3,4-difluorobenzamide], the “Kv7.2/7.3 Activity” value is given as “− (“−” No Activity < 0.15)”.
